Experimental data: patent publication US9340585B2, “Competence stimulating peptide” (INSTITUT NATIONAL DE LA RECHERCHE AGRONOMIQUE, priority 2009, dated 2016)
Where no end group is shown, it is not given here. The star is where a group is joined. Cam = NC(=O)C*

Experiments:
[1] = test system: strain deleted for the papR gene; experiment: Transformation assay: peptide added to culture of papR-deleted strain in CDM; type: cell-based, S. thermophilus; conditions: for Competence: peptide stimulates competence, YES/NO
Protocol: (§1) S. thermophilus cells are grown overnight at 42° C. in CDM. The culture is then diluted in CDM at an OD600 0.05. Sixty minutes after dilution, the competence stimulating peptide (CSP), which is the mature peptide comprising SEQ ID No1 or fragments or derivatives of SEQ ID No1 that allow to induce competence in S. thermophilus, is added to the culture at a final concentration of 1 μM. Ten minutes later, 100 μl of the culture containing the CSP is mixed with 1 μg of DNA and incubated for 2 hours at 28° C. when mixed with a thermosensitive replicative plasmid DNA or 1 hour at 42° C. when mixed with chromosomal DNA or PCR fragments, before being serially diluted and spread on M17lac plates with the appropriate antibiotic.
The inventors tested the activity of fragments of SEQ ID No1 using a strain deleted for the papR gene using the protocol described in part 8. The inventors thus synthesized different fragments of SEQ ID No1 in order to test their biological activity. Fragments were synthesized as below:
(§2) To test the biological activity of those fragments, peptides were added to a culture of a strain deleted for the papR gene at a final concentration of 1 μM, 1 hour after the dilution of the culture at an OD600 of 0.05 in a chemical defined medium (CDM). Transformation assays were performed with 100 μl of cells with 1 μg of plasmid and or chromosomal DNA.

[2] = test system: S. thermophilus strain CNRZ1066; experiment: Transformation assay: peptide added to culture of strain CNRZ1066; type: cell-based
Protocol: as §1, §2
(§3) S. thermophilus strain LMG18311 is naturally poorly competent and strain CNRZ1066 is naturally not competent. However, complementation of both strains with a plasmid that overexpresses the papR gene makes them competent. […]

[3] = test system: S. thermophilus strain LMG18311; experiment: Transformation assay: peptide added to culture of strain LMG18311; type: cell-based
Protocol: as §1, §2, §3

[4] = Chromosomal transforming DNA, alkylation comparison
[5] = Chromosomal transforming DNA 1 μg, peptide 1 μM, fragment comparison

## IAILPYFAGC*L (IAILPYFAGC(Cam)L; listed as Streptococcus thermophilus) [Alkylated SEQ ID N^o7]
[1]; [4]
  numbers of transformants obtained with 100 μl of competent cells: 0
[1]; Plasmid transforming DNA, alkylation comparison
  numbers of transformants obtained with 100 μl of competent cells: 2

## IAILPYFAGCL (listed as Streptococcus thermophilus) [SEQ ID N^o7]
[2]; CNRZ1066, result in words
  competence after addition of the peptide to the culture: renders them competent
[2]; CNRZ1066, Chromosomal transforming DNA
  numbers of transformants obtained with 100 μl of competent cells: 0
[1]; [5]
  numbers of transformants obtained with 100 μl of competent cells: 24
[1]; [4]
  numbers of transformants obtained with 100 μl of competent cells: 35
[1]; listed as 7
  Competence: YES
[1]; listed as SEQ ID No7
  Competence: active competence peptide
[3]; LMG18311, result in words
  competence after addition of the peptide to the culture: renders them competent
[3]; LMG18311, Chromosomal transforming DNA
  numbers of transformants obtained with 100 μl of competent cells: 477

## LPYFAGCL (Fragment of SEQ ID N07) [SEQ ID N^o12]
[1]; [5]
  numbers of transformants obtained with 100 μl of competent cells: 41

## PYFAGCL (Fragment of SEQ ID N07) [SEQ ID N^o13]
[1]; [5]
  numbers of transformants obtained with 100 μl of competent cells: 0
[1]; Plasmid transforming DNA 1 μg, peptide 1 μM, fragment comparison
  numbers of transformants obtained with 100 μl of competent cells: 0
